Assay results: PubChem BioAssay (NCI)
Where “and” joins values, the source holds several entries; their conditions need not be identical. Identical values can stand only once.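 Cultured in 96-well plates, cells were exposed to test compound for 48 hours across five concentrations. GI50 is the concentration that inhibits growth by half. The concentration for full growth arrest is given as TGI.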 Where a SMILES comes first, the peptide text is derived from it. Bridges are numbered along the chain shown (N, C = ends). [ ]: non-standard residue; d: D form. The star is where a group is joined. Phe(3,5-F2) = N[C@@H](Cc1cc(F)cc(F)c1)C(=O)O; Pro(4R-Me) = C[C@H]1CN[C@H](C(=O)O)C1; aThr = C[C@H](O)[C@H](N)C(=O)O; Pip = O=C(O)[C@@H]1CCCCN1; X7 = CCC/C=C/C=C/C(=O)*

Experiments:
Assay in all cases: inhibition of tumour cell growth, NCI panel, 48 h
MDA-MB-468 breast = tested on: MDA-MB-468 breast
MOLT-4 leukemia = tested on: MOLT-4 leukemia
TK-10 renal = tested on: TK-10 renal
RXF 393 renal = tested on: RXF 393 renal
OVCAR-5 ovarian = tested on: OVCAR-5 ovarian
SW-620 colon = tested on: SW-620 colon
BT-549 breast = tested on: BT-549 breast
DU-145 prostate = tested on: DU-145 prostate
SF-539 CNS = tested on: SF-539 CNS
OVCAR-3 ovarian = tested on: OVCAR-3 ovarian
U251 CNS = tested on: U251 CNS
SNB-19 CNS = tested on: SNB-19 CNS
MDA-MB-231 breast = tested on: MDA-MB-231 breast
HS 578T breast = tested on: HS 578T breast
HOP-62 NSCLC = tested on: HOP-62 NSCLC
CAKI-1 renal = tested on: CAKI-1 renal
IGROV1 ovarian = tested on: IGROV1 ovarian
SNB-75 CNS = tested on: SNB-75 CNS
COLO 205 colon = tested on: COLO 205 colon
SK-OV-3 ovarian = tested on: SK-OV-3 ovarian
CCRF-CEM leukemia = tested on: CCRF-CEM leukemia
A498 renal = tested on: A498 renal
HCC-2998 colon = tested on: HCC-2998 colon
NCI-H226 lung = tested on: NCI-H226 lung
SK-MEL-28 melanoma = tested on: SK-MEL-28 melanoma
MDA-MB-435 = tested on: MDA-MB-435
HCT-116 colon = tested on: HCT-116 colon

## CC(C)[C@]12O[C@H]1[C@@H]1O[C@]13[C@]1(O[C@H]1C[C@H]1C4=C(CC[C@@]13C)C(=O)OC4)[C@@H]2OC(=O)OC(C)(C)C
MDA-MB-468 breast
  GI50: 0.0147 µM
  TGI: 0.0361 µM

## COc1ccc2c(c1)OC(N)=C(C#N)C2c1ccc(F)c(F)c1 (stereo not drawn)
MDA-MB-468 breast
  GI50: 0.222 µM
  TGI: 3.56 µM

## COc1ccc(-c2nc(Nc3ccc(F)cc3)nc(Nc3ccc4c(c3)nc(C)n4Cc3ccccc3)n2)cc1
MDA-MB-468 breast
  GI50: 2.27 µM
  TGI: 7.22 µM

## COc1cc2cc(Oc3ccc(NC(=O)Nc4ccc(F)c(C(F)(F)F)c4)cc3)c(C)nc2cc1OCCN1CCOCC1
MDA-MB-468 breast
  GI50: 0.451 µM
  TGI: 10.4 µM

## COc1ccc(/C=C/C(=O)c2ccc(B(O)O)cc2)cc1O
MDA-MB-468 breast
  GI50: 6.23 µM
  TGI: 18.4 µM

## CC(=O)N[C@@H](Cc1ccc(OP(=O)(O)O)cc1)C(=O)N[C@H]1CCC(=O)N2CCC[C@@H](C(=O)NCc3cccc4ccccc34)N2C1=O
MDA-MB-468 breast
  GI50: > 25 µM
  TGI: > 25 µM

## NS(=O)(=O)c1ccc(N=Nc2c(O)[nH]c3cccc(CCc4ccncc4)c23)cc1
MDA-MB-468 breast
  GI50: > 25 µM
  TGI: > 25 µM

## COC(=O)CC12CC(NC(=O)c3csc([C@@H](C[C@H](C(C)C)N(C)C(=O)[C@@H](NC(=O)[C@H]4CCCCN4C)C(C)C)OC(C)=O)n3)(C1)C2
MDA-MB-468 breast
  GI50: 0.00438 µM
  TGI: > 33.3 µM

## CCN1C2=C(SC(=S)C1=C1SC(C(=O)c3ccccc3)=C(C(=O)c3ccccc3)S1)SC(=Nc1ccccc1)C2=O
MDA-MB-468 breast
  GI50: > 50.4 µM
  TGI: > 100 µM

## COc1c(O)cc2c(c1CC=C(C)C)OC(=O)c1c(cc(O)c(CC=C(C)C)c1O)O2
MDA-MB-468 breast
  GI50: 4.19 µM
  TGI: 8.21 µM

## O=C1/C(=C\c2ccc(Cl)cc2)CN(C(=O)c2ccccc2)C/C1=C\c1ccc(Cl)cc1
MDA-MB-468 breast
  GI50: 1.86 µM
  TGI: 4.28 µM

## Oc1c(CCl)cc(Cl)cc1Cc1cc(Cl)cc(Cc2cc(Cl)cc(CCl)c2O)c1O
MDA-MB-468 breast
  GI50: 3.28 µM
  TGI: 13.1 µM

## CO[C@@H]1[C@H](N(C)C(=O)c2ccccc2)C[C@@H]2O[C@]1(C)n1c3ccccc3c3c4c(c5c6ccccc6n2c5c31)C(=O)NC4=O
MDA-MB-468 breast
  GI50: 0.335 µM
  TGI: > 100 µM

## Cc1cccc2c1NC(=O)[C@@H](NC(=O)[C@H](CCC(F)(F)F)[C@H](CCC(F)(F)F)C(N)=O)N=C2c1cccc(F)c1
MDA-MB-468 breast
  GI50: 18.5 µM
  TGI: > 100 µM

## NNC(=S)N/N=C/c1ccccn1
MDA-MB-468 breast
  GI50: 1.94 µM
  TGI: 5.59 µM

## O=C(NCCNc1nccc(-c2c(-c3ccc(F)cc3)nc3sccn23)n1)Nc1cccc(C(F)(F)F)c1
MDA-MB-468 breast
  GI50: 2.14 µM
  TGI: 7.46 µM

## CN1CCN(C(=O)OCc2nc3c(N4CCOCC4)nc(-c4ccccc4)nc3n2C)CC1
MDA-MB-468 breast
  GI50: 0.558 µM
  TGI: 2.02 µM

## N#C/C(=C\c1ccc([N+](=O)[O-])cc1)n1nnc2cc(F)c(F)cc21
MDA-MB-468 breast
  GI50: 1.51 µM
  TGI: 3.53 µM

## O=C(/C=C/c1cccnc1)c1ccccc1
MDA-MB-468 breast
  GI50: 8.22 µM
  TGI: 22 µM

## COC(=O)Nc1nc2ccc(C(=O)C3CC3)cc2[nH]1
MDA-MB-468 breast
  GI50: 0.247 µM
  TGI: 1.48 µM

## CN1CCc2c(sc3ncnc(N/N=C/c4cn(-c5ccccc5)nc4-c4ccc(Br)cc4)c23)C1
MOLT-4 leukemia
  GI50: 0.261 µM
  TGI: > 100 µM
TK-10 renal
  GI50: > 100 µM
  TGI: > 100 µM
RXF 393 renal
  GI50: 18.3 µM
  TGI: > 80.7 µM
OVCAR-5 ovarian
  GI50: > 100 µM
  TGI: > 100 µM
SW-620 colon
  GI50: 0.352 µM
  TGI: > 100 µM
BT-549 breast
  GI50: > 100 µM
  TGI: > 100 µM
DU-145 prostate
  GI50: > 100 µM
  TGI: > 100 µM
SF-539 CNS
  GI50: 0.282 µM
  TGI: > 100 µM
OVCAR-3 ovarian
  GI50: 0.0375 µM
  TGI: 0.304 µM
U251 CNS
  GI50: 0.636 µM
  TGI: > 100 µM
SNB-19 CNS
  GI50: 20.3 µM
  TGI: > 100 µM
MDA-MB-231 breast
  GI50: 0.362 µM
  TGI: > 100 µM
HS 578T breast
  GI50: 16.4 µM
  TGI: > 100 µM
HOP-62 NSCLC
  GI50: 0.399 µM
  TGI: > 100 µM
CAKI-1 renal
  GI50: > 100 µM
  TGI: > 100 µM
IGROV1 ovarian
  GI50: 0.322 µM
  TGI: > 100 µM
SNB-75 CNS
  GI50: 5.88 µM
  TGI: > 100 µM
COLO 205 colon
  GI50: 0.332 µM
  TGI: > 100 µM
SK-OV-3 ovarian
  GI50: > 100 µM
  TGI: > 100 µM
CCRF-CEM leukemia
  GI50: 0.196 µM
  TGI: > 100 µM
A498 renal
  GI50: > 100 µM
  TGI: > 100 µM
HCC-2998 colon
  GI50: 0.285 µM
  TGI: > 100 µM
NCI-H226 lung
  GI50: > 100 µM
  TGI: > 100 µM
SK-MEL-28 melanoma
  GI50: > 100 µM
  TGI: > 100 µM
MDA-MB-435
  GI50: > 100 µM
  TGI: > 100 µM
HCT-116 colon
  GI50: 0.102 µM
  TGI: > 100 µM

## Nc1ncnc2occ(-c3ccc(NC(=O)Nc4cc(C(F)(F)F)ccc4F)cc3)c12
MDA-MB-468 breast
  GI50: 4.46 µM and 3.9 µM
  TGI: 12.4 µM and 11.8 µM

## Cc1cc(C)c2c(=O)cc(-c3ccccc3)[nH]c2c1
MDA-MB-468 breast
  GI50: 3.79 µM
  TGI: 25.5 µM

## CC[n+]1c(/C=C/c2ccc(N3CCCC3)cc2)cccc1/C=C/c1ccc(N2CCCC2)cc1
MDA-MB-468 breast
  GI50: 0.0423 µM
  TGI: 0.196 µM

## NCCSC1(O)C(=O)c2ccccc2-c2ccccc21 (stereo not drawn)
MDA-MB-468 breast
  GI50: 0.615 µM
  TGI: 2.12 µM

## COc1ncnn2ccc(-c3cnc4nc(C)n(Cc5nnc(C(C)F)o5)c4c3)c12 (stereo not drawn)
MDA-MB-468 breast
  GI50: 0.051 µM
  TGI: 0.309 µM

## C#CCN(C)CCCOc1ccc(NCc2ccc(C(=O)NO)cc2)cc1Cl
MDA-MB-468 breast
  GI50: 1.7 µM
  TGI: 8.14 µM

## CCC/C=C/C=C/C(=O)N[C@@H](Cc1cc(F)cc(F)c1)C(=O)N[C@@H]1C(=O)N2CCC[C@H]2C(=O)N2CCCC[C@H]2C(=O)N[C@@H](C)C(=O)N2C[C@H](C)C[C@H]2C(=O)O[C@H]1C (X7-[Phe(3,5-F2)][aThr]P[Pip]A[Pro(4R-Me)]; ester 2-C)
MDA-MB-468 breast
  GI50: 0.271 µM
  TGI: 1.03 µM

## Nc1nc(N)c2cc(Sc3ccc(Cl)cc3)ccc2n1
MDA-MB-468 breast
  GI50: 1.15 µM
  TGI: 2.71 µM

## O=C1NC(=N[C@@H]2C[C@H]2c2ccccc2)S/C1=C\c1ccc2ncccc2c1
MDA-MB-468 breast
  GI50: 0.872 µM
  TGI: 5.85 µM

## O=C(CSc1nc2ccc([N+](=O)[O-])cc2[nH]1)Nc1ccc([N+](=O)[O-])cc1
MDA-MB-468 breast
  GI50: 1.08 µM
  TGI: 5.05 µM

## CN1CCN(Cc2ccc(NC(=O)c3cncc(C#Cc4cnc5ccc(OCC6COC6)nn45)c3)cc2C(F)(F)F)CC1
MDA-MB-468 breast
  GI50: 0.196 µM
  TGI: 0.726 µM

## COc1cccc(Nc2ncnn3ccc(CN4CC[C@@H](N)[C@H](O)C4)c23)c1
MDA-MB-468 breast
  GI50: 0.0333 µM and 0.0201 µM
  TGI: 0.79 µM and 0.175 µM

## ClCCN(CCCl)c1ccc(OCc2ccccc2)cc1
MDA-MB-468 breast
  GI50: 1.45 µM
  TGI: 16.7 µM

## Nc1n[nH]c2ccc([C@H]3[C@@H]4C5CCC(C5)[C@@H]4c4c(ccc5[nH]ncc45)N3S(=O)(=O)C3CC3)cc12 (stereo partly drawn)
MDA-MB-468 breast
  GI50: 0.137 µM
  TGI: 1.7 µM

## CC(C)c1ccc2c(c1)CCC1C(C)(CN)CCCC21C (stereo not drawn)
MDA-MB-468 breast
  GI50: 1.43 µM
  TGI: 2.76 µM

## CCOC(=O)Nc1ccc2c3c(cccc13)-c1ccccc1-2
MDA-MB-468 breast
  GI50: 1.37 µM
  TGI: 5.21 µM

## O=C(NC(=S)Nc1ccc(-c2nc3ccccc3[nH]2)cc1)c1ccc2ccccc2c1
MDA-MB-468 breast
  GI50: 2.34 µM
  TGI: 7.72 µM

## Cc1ccc([I+]c2ccc(C)cc2)cc1
MDA-MB-468 breast
  GI50: 0.264 µM
  TGI: 40 µM
